# Values joined by “and” are separate entries in the source; they are usually repeats but may differ in a detail not shown here. Equal entries are not always repeated. Where two headings read alike, the source gives them in different places.
# Tests used:
# [1] = test system: venom SVMPs from six saw-scaled vipers; format: biochemical; settings: read-out: IC50, neutralization of venom SVMP activity
# [2] = test system: procoagulant activity of six Echis venoms; format: biochemical; settings: for IC50: read-out: IC50, neutralization of venom-induced plasma clotting
# [3] = test system: venom-induced plasma clotting (Echis venoms, calcium-independent); format: biochemical; settings: for IC50: read-out: IC50, venom-induced plasma clotting in the absence of calcium
# [4] = test system: cleavage of recombinant human prothrombin by saw-scaled viper venom; format: biochemical, Echis; settings: lower dose (150 µM)
# [5] = test system: E. ocellatus venom (Nigeria); assay: coincubation model of envenoming; parameters: species or system male CD1 mice; settings: mouse, in vivo, iv
# [6] = test system: E. pyramidum venom; assay: coincubation model of envenoming; parameters: species or system male CD-1 mice; settings: mouse, in vivo, iv
# [7] = test system: E. carinatus (India) venom; assay: coincubation model of envenoming; parameters: species or system male CD-1 mice; settings: mouse, in vivo, iv
# [8] = test system: E. ocellatus venom; parameters: species or system male CD-1 mice; settings: mouse, in vivo, ip
# [9] = test system: Indian E. carinatus venom; format: biochemical; settings: read-out: IC50, plasma assay
# [10] = test system: E. pyramidum venom; parameters: species or system male CD-1 mice; settings: mouse, in vivo, ip
# [11] = test system: E. carinatus (India) venom; parameters: species or system male CD-1 mice; settings: mouse, in vivo, ip
# [12] = test system: E. ocellatus, E. pyramidum and E. carinatus venoms; parameters: species or system male CD-1 mice; settings: mouse, in vivo, ip
# [13] = test system: E. ocellatus venom; assay: challenge and treat model using oral DMPS, E. ocellatus; parameters: species or system male CD-1 mice; settings: mouse, in vivo
# [14] = test system: E. ocellatus venom; assay: neutralization of local hemorrhage; parameters: species or system male CD-1 mice; settings: mouse, in vivo
# [15] = test system: E. ocellatus venom; parameters: species or system mice; settings: mouse, in vivo, iv
# [16] = test system: venoms of E. pyramidum and E. carinatus; parameters: species or system mice; settings: mouse, in vivo, iv
# [17] = test system: PLA2 activity of fractionated E. ocellatus venom; format: biochemical
# [18] = test system: serine protease activity of fractionated E. ocellatus venom; format: biochemical
# [19] = humans, cited from earlier work
# [20] = rats and rabbits, first 6 h, after oral dosing; cited from earlier work
# [21] = rabbits and dogs, intravenous or oral administration for 10-26 weeks; cited from earlier work
# [22] = drug-only / antivenom-only control groups; settings: 600 µg DMPS orally, 24 h
Compound,IC50 [1] [µM],IC50 [2] [µM],IC50 [3] [µM],"protection of prothrombin against cleavage, comparison [4]",plasma thrombin-antithrombin (TAT) concentrations [5] [ng/mL],survival [5],protection against lethality [6],protection against lethality [7],survival to the end of the experiment (24 h) [8],time of death [8],also measured
OCC(S)CS (stereo not shown) [dimercaprol],0.04 to 0.18,0.14 to 1.36,0.49 to 14,outperformed DMPS and DMSA,40 to 50,survived until the end of the experiment (6 h),two deaths,complete protection,two experimental animals also survived,111 min and 125 min and 150 min,–
O=C(O)CN(CCN(CC(=O)O)CC(=O)O)CC(=O)O [EDTA],2.25 to 4.43,–,4.89 to 253,outperformed DMPS and DMSA,–,–,–,–,–,–,inhibition of venom activity in the plasma assay [2]: did not extensively inhibit venom activity; IC50 [9]: 2.18 µM; inhibition of venom-induced plasma clotting in the absence of calcium ([3]; no calcium): effective at inhibiting venom-induced plasma clotting
"O=S(=O)(O)CC(S)CS (stereo not shown) [DMPS, 2,3-dimercapto-1-propanesulfonic acid]",1.64 to 3.4,1.18 to 27.7,2.18 to 7.55,–,170 to 252,survived until the end of the experiment (6 h),complete protection,two deaths,two of the five experimental animals survived,756 to 1440 min and 756 min,"time of death [7]: 89 min and 110 min; prolonged animal survival compared to the venom-only controls [8]: ~ 17 h; survival for the duration of the experiment (24 h) [10]: two survived for the duration of the experiment (24 h); effect on lethality compared with the venom-only control [11]: slight delay in lethality; TAT concentrations, animals not protected by DMPS [12]: > 400 ng/mL; TAT concentrations, animals that survived for the duration of the experiment (average) [12]: ~ 200 ng/ml; echinocytes in blood films [13]: markedly reduced the number of echinocytes; prolonged animal survival compared to the venom-only controls [13]: ~ 10 h; survival at the end of the experiment (24 h) [13]: 2 of 5; hemorrhagic lesion size (average) [14]: 1.43 mm^2; RBC morphology [15]: fully rescued normal RBC morphology; RBC morphology [16]: some protection; inhibition of PLA2 activity [17]: unable to inhibit; inhibition of serine protease activity [18]: unable to inhibit; time to peak plasma concentrations ([19]; after ingestion): 3 to 4 h; time at which the drug can be detected in the plasma ([19]; after oral administration): 30 to 45 min; clinical half-life [19]: ~ 20 h; fraction excreted in the urine / eliminated within 6 h [20]: 85-89% and > 85%; changes in the concentrations of iron or calcium [21]: no significant changes in the concentrations of iron or calcium; signs of toxicity (survival, behavioral and post-mortem observations) [22]: did not display any signs of toxicity in mice"
"O=C(O)[C@@H](S)[C@@H](S)C(=O)O [DMSA, dimercaptosuccinic acid]",19.3 to 35.1,18.8 to 147,–,–,300 to 666,three of the five experimental animals survived,–,–,–,–,–

# Source: article PMC7116364 (Science translational medicine, 2020)
